In patent US7417156B2, “Orally active, antimalarial, anticancer, artemisinin-derived trioxane dimers” (Johns Hopkins University, priority 2002, dated 2008):

What was measured:
NCI/ADR-RES = test: NCI 60 cell line panel screen (SRB); assay type: cell-based, human
TK-10 = test: NCI 60 cell line panel screen (SRB); assay type: cell-based, human
BT-549 = test: NCI 60 cell line panel screen (SRB); assay type: cell-based, human
786-0 = test: NCI 60 cell line panel screen (SRB); assay type: cell-based, human
OVCAR-5 = test: NCI 60 cell line panel screen (SRB); assay type: cell-based, human
ACHN = test: NCI 60 cell line panel screen (SRB); assay type: cell-based, human
CCRF-CEM = test: NCI 60 cell line panel screen (SRB); assay type: cell-based, human; details: CCRF-CEM (Leukemia)
A549/ATCC = test: NCI 60 cell line panel screen (SRB); assay type: cell-based, human
NCI-H322M = assay type: cell-based
T-47D = test: NCI 60 cell line panel screen (SRB); assay type: cell-based, human; details: T-47D (Breast Cancer)
NCI-H23 = test: NCI 60 cell line panel screen (SRB); assay type: cell-based, human
EKVX = test: NCI 60 cell line panel screen (SRB); assay type: cell-based, human
HCT-15 = test: NCI 60 cell line panel screen (SRB); assay type: cell-based, human
HT29 = test: NCI 60 cell line panel screen (SRB); assay type: cell-based, human
MDA-MB231/ATCC = test: NCI 60 cell line panel screen (SRB); assay type: cell-based, human
HL-60(TB) = test: NCI 60 cell line panel screen (SRB); assay type: cell-based, human
M14 = test: NCI 60 cell line panel screen (SRB); assay type: cell-based, human
NCI-H522 = test: NCI 60 cell line panel screen (SRB); assay type: cell-based, human
SF-268 = test: NCI 60 cell line panel screen (SRB); assay type: cell-based, human
HS 578T = test: NCI 60 cell line panel screen (SRB); assay type: cell-based, human
UACC-257 = test: NCI 60 cell line panel screen (SRB); assay type: cell-based, human
RPMI-8226 = test: NCI 60 cell line panel screen (SRB); assay type: cell-based, human
MCF7 = test: NCI 60 cell line panel screen (SRB); assay type: cell-based, human
SK-MEL-28 = test: NCI 60 cell line panel screen (SRB); assay type: cell-based, human
HOP-92 = test: NCI 60 cell line panel screen (SRB); assay type: cell-based, human
U251 = test: NCI 60 cell line panel screen (SRB); assay type: cell-based, human
IGROVI = test: NCI 60 cell line panel screen (SRB); assay type: cell-based, human
COLO 205 = test: NCI 60 cell line panel screen (SRB); assay type: cell-based, human
KM12 = test: NCI 60 cell line panel screen (SRB); assay type: cell-based, human

## CC1CCC2C(C)C(CC(CO)CC3OC4OC5(C)CCC6C(C)CCC(C3C)C46OO5)OC3OC4(C)CCC1C32OO4 (stereo not drawn) [Compound 4, bis-trioxane primary alcohol]
NCI/ADR-RES; Breast Cancer, NCI/ADR-RES
  Log10GI50: −7.45
NCI/ADR-RES; NCI/ADR-RES (Breast Cancer), LC50: PG=−50
  Log10LC50: −4.52 log10M
NCI/ADR-RES; NCI/ADR-RES (Breast Cancer), TGI: PG=0
  Log10TGI50: −6.41 log10M
TK-10; Renal Cancer, TK-10
  Log10GI50: −6.60
TK-10; TK-10 (Renal Cancer), LC50: PG=−50
  Log10LC50: −4.38 log10M
TK-10; TK-10 (Renal Cancer), TGI: PG=0
  Log10TGI50: −4.81 log10M
BT-549; BT-549 (Breast Cancer), LC50: PG=−50
  Log10LC50: −4.31 log10M
BT-549; BT-549 (Breast Cancer), TGI: PG=0
  Log10TGI50: −4.73 log10M
BT-549; Breast Cancer, BT-549
  Log10GI50: −7.11
786-0; 786-0 (Renal Cancer), LC50: PG=−50
  Log10LC50: −4.31 log10M
786-0; 786-0 (Renal Cancer), TGI: PG=0
  Log10TGI50: −4.83 log10M
786-0; Renal Cancer, 786-0
  Log10GI50: −7.48
OVCAR-5; OVCAR-5 (Ovarian Cancer), LC50: PG=−50
  Log10LC50: −4.54 log10M
OVCAR-5; OVCAR-5 (Ovarian Cancer), TGI: PG=0
  Log10TGI50: −6.42 log10M
OVCAR-5; Ovarian Cancer, OVCAR-5
  Log10GI50: −7.79
ACHN; ACHN (Renal Cancer), LC50: PG=−50
  Log10LC50: −4.30 log10M
ACHN; ACHN (Renal Cancer), TGI: PG=0
  Log10TGI50: −4.76 log10M
ACHN; Renal Cancer, ACHN
  Log10GI50: −7.12
CCRF-CEM; LC50: PG=−50
  Log10LC50: >−4.00 log10M
CCRF-CEM; TGI: PG=0
  Log10TGI50: −4.66 log10M
A549/ATCC; A549/ATCC (Non-Small Cell Lung Cancer), LC50: PG=−50
  Log10LC50: −4.11 log10M
A549/ATCC; A549/ATCC (Non-Small Cell Lung Cancer), TGI: PG=0
  Log10TGI50: −4.71 log10M
A549/ATCC; Non-Small Cell Lung Cancer, A549/ATCC
  Log10GI50: −7.29
NCI-H322M; NCI-H322M (Non-Small Cell Lung Cancer), LC50: PG=−50
  Log10LC50: −4.29 log10M
NCI-H322M; NCI-H322M (Non-Small Cell Lung Cancer), TGI: PG=0
  Log10TGI50: −4.63 log10M
NCI-H322M; Non-Small Cell Lung Cancer, NCI-H322M
  Log10GI50: −4.97
T-47D; LC50: PG=−50
  Log10LC50: −4.17 log10M
T-47D; TGI: PG=0
  Log10TGI50: −4.73 log10M
NCI-H23; NCI-H23 (Non-Small Cell Lung Cancer), LC50: PG=−50
  Log10LC50: −4.49 log10M
NCI-H23; Non-Small Cell Lung Cancer, NCI-H23
  Log10GI50: −7.84
EKVX; EKVX (Non-Small Cell Lung Cancer), LC50: PG=−50
  Log10LC50: −4.36 log10M
EKVX; EKVX (Non-Small Cell Lung Cancer), TGI: PG=0
  Log10TGI50: −4.77 log10M
EKVX; Non-Small Cell Lung Cancer, EKVX
  Log10GI50: −7.12
HCT-15; Colon Cancer, HCT-15
  Log10GI50: <−8.00
HCT-15; HCT-15 (Colon Cancer), LC50: PG=−50
  Log10LC50: −4.06 log10M
HCT-15; HCT-15 (Colon Cancer), TGI: PG=0
  Log10TGI50: −4.78 log10M
HT29; Colon Cancer, HT29
  Log10GI50: −7.75
HT29; HT29 (Colon Cancer), LC50: PG=−50
  Log10LC50: >−4.00 log10M
HT29; HT29 (Colon Cancer), TGI: PG=0
  Log10TGI50: −4.67 log10M
MDA-MB231/ATCC; Breast Cancer, MDA-MB231/ATCC
  Log10GI50: −5.40
MDA-MB231/ATCC; MDA-MB231/ATCC (Breast Cancer), LC50: PG=−50
  Log10LC50: >−4.00 log10M
MDA-MB231/ATCC; MDA-MB231/ATCC (Breast Cancer), TGI: PG=0
  Log10TGI50: −4.33 log10M
HL-60(TB); HL-60(TB) (Leukemia), LC50: PG=−50
  Log10LC50: −4.13 log10M
HL-60(TB); HL-60(TB) (Leukemia), TGI: PG=0
  Log10TGI50: −4.88 log10M
HL-60(TB); Leukemia, HL-60(TB)
  Log10GI50: −7.78
M14; M14 (Melanoma), LC50: PG=−50
  Log10LC50: −4.14 log10M
M14; M-14 (Melanoma), TGI: PG=0
  Log10TGI50: −4.68 log10M
M14; Melanoma, M14
  Log10GI50: −5.87
NCI-H522; NCI-H522 (Non-Small Cell Lung Cancer), TGI: PG=0
  Log10TGI50: −4.88 log10M
NCI-H522; NCI-H-522 (Non-Small Cell Lung Cancer), LC50: PG=−50
  Log10LC50: −4.40 log10M
NCI-H522; Non-Small Cell Lung Cancer, NCI-H522
  Log10GI50: −7.53
SF-268; CNS Cancer, SF-268
  Log10GI50: −5.40
SF-268; SF-268 (CNS Cancer), LC50: PG=−50
  Log10LC50: −4.23 log10M
SF-268; SF-268 (CNS Cancer), TGI: PG=0
  Log10TGI50: −4.63 log10M
HS 578T; Breast Cancer, HS 578T
  Log10GI50: −4.82
HS 578T; HS 578T (Breast Cancer), LC50: PG=−50
  Log10LC50: >−4.00 log10M
HS 578T; HS 578T (Breast Cancer), TGI: PG=0
  Log10TGI50: >−4.00 log10M
UACC-257; Melanoma, UACC-257
  Log10GI50: −7.31
UACC-257; UACC-257 (Melanoma), LC50: PG=−50
  Log10LC50: −4.30 log10M
UACC-257; UACC-257 (Melanoma), TGI: PG=0
  Log10TGI50: −4.71 log10M
RPMI-8226; Leukemia, RPMI-8226
  Log10GI50: <−8.00
RPMI-8226; RPMI-8226 (Leukemia), LC50: PG=−50
  Log10LC50: >−4.00 log10M
RPMI-8226; RPMI-8226 (Leukemia), TGI: PG=0
  Log10TGI50: −6.91 log10M
MCF7; Breast Cancer, MCF7
  Log10GI50: −7.22
MCF7; MCF7 (Breast Cancer), LC50: PG=−50
  Log10LC50: −4.03 log10M
MCF7; MCF7 (Breast Cancer), TGI: PG=0
  Log10TGI50: −4.67 log10M
SK-MEL-28; Melanoma, SK-MEL-28
  Log10GI50: −4.95
SK-MEL-28; SK-MEL-28 (Melanoma), LC50: PG=−50
  Log10LC50: −4.12 log10M
SK-MEL-28; SK-MEL-28 (Melanoma), TGI: PG=0
  Log10TGI50: −4.54 log10M
HOP-92; HOP-92 (Non-Small Cell Lung Cancer), LC50: PG=−50
  Log10LC50: −4.22 log10M
HOP-92; HOP-92 (Non-Small Cell Lung Cancer), TGI: PG=0
  Log10TGI50: −4.65 log10M
HOP-92; Non-Small Cell Lung Cancer, HOP-92
  Log10GI50: −6.37
U251; CNS Cancer, U251
  Log10GI50: −7.27
U251; U251 (CNS Cancer), LC50: PG=−50
  Log10LC50: >−4.00 log10M
U251; U251 (CNS Cancer), TGI: PG=0
  Log10TGI50: −4.47 log10M
IGROVI; IGROVI (Ovarian Cancer), LC50: PG=−50
  Log10LC50: −4.32 log10M
IGROVI; IGROVI (Ovarian Cancer), TGI: PG=0
  Log10TGI50: −4.68 log10M
IGROVI; Ovarian Cancer, IGROVI
  Log10GI50: −5.36
COLO 205; COLO 205 (Colon Cancer), LC50: PG=−50
  Log10LC50: −4.50 log10M
COLO 205; COLO 205 (Colon Cancer), TGI: PG=0
  Log10TGI50: −6.43 log10M
COLO 205; Colon Cancer, COLO 205
  Log10GI50: <−8.00
KM12; Colon Cancer, KM12
  Log10GI50: <−8.00
KM12; KM12 (Colon Cancer), LC50: PG=−50
  Log10LC50: −4.29 log10M
KM12; KM12 (Colon Cancer), TGI: PG=0
  Log10TGI50: −4.79 log10M
